Columns and labels:
[1] = system: MKN‐45 cells; test: CCK‐8 cytotoxicity / proliferation assay; assay type: cell-based, human; conditions: for IC50: Homo sapiens, MKN-45, 72 h, read-out: IC50 (cytotoxic activity); for Effect on proliferation of tumor cells (in words): MKN‐45 cells, 72 h, CCK‐8
[2] = biological target: Recombinant Human Her2/ErbB2 Protein (Homo sapiens, UniProt P04626); test: Microscale thermophoresis; assay type: binding
[3] = biological target: Human PD‐L1 Fc Protein (Homo sapiens, UniProt Q9NZQ7); test: Microscale thermophoresis; assay type: binding
Human PD‐L1 Fc Protein, sequence (Q9NZQ7 19-238 limits assumed): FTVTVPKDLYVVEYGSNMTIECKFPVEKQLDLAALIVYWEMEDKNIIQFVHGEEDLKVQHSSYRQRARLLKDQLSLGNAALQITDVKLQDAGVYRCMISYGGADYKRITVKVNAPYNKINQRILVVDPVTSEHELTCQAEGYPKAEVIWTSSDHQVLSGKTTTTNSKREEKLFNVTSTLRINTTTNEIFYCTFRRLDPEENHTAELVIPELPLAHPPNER

[4] = biological target: HER2 kinase (Homo sapiens, UniProt P04626); test: Enzyme activity assay of HER2; assay type: biochemical
HER2 kinase, sequence (P04626 23-1255): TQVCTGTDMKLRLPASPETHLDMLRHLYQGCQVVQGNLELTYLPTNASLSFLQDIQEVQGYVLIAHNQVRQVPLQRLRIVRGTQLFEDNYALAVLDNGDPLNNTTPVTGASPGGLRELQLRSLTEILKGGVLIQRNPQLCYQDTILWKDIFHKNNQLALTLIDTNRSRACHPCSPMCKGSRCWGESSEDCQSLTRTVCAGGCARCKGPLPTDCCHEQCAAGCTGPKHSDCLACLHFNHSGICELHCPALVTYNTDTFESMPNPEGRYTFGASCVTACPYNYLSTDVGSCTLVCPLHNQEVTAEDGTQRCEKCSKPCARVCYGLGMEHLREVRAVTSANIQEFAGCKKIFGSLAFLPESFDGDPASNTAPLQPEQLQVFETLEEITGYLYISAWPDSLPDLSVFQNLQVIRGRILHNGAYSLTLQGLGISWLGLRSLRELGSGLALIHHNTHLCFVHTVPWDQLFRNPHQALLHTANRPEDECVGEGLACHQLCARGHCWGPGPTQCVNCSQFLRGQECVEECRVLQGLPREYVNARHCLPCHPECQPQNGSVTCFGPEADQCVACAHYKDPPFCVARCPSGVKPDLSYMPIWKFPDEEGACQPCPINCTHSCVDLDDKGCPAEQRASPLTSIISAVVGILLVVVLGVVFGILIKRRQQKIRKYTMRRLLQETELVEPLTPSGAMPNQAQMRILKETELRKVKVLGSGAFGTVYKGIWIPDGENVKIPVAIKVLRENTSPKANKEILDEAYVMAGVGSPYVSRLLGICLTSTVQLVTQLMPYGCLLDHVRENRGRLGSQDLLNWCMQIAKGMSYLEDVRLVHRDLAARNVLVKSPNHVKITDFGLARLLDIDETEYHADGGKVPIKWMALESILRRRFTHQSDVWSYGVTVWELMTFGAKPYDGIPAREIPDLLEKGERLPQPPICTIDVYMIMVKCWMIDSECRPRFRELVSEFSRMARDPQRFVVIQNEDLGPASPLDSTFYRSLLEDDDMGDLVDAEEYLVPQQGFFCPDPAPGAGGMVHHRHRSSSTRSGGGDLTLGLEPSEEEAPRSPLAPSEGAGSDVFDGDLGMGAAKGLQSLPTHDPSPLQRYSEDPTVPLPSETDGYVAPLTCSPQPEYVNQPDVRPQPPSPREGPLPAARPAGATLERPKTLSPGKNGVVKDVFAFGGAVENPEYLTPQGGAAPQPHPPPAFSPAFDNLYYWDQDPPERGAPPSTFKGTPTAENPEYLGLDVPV

Recombinant Human Her2/ErbB2 Protein, sequence (P04626 23-1255): as above

| Kd [2] [nM] | Kd [3] [nM] | IC50 [4] [nM] | Structure (SMILES) | IC50 [1] [nM] | Effect on proliferation of tumor cells (in words) [1] |
| --- | --- | --- | --- | --- | --- |
| 3700 | – | – | O=c1c(-c2ccc(O)cc2)coc2cc(O)ccc12 [Daidzein] | 21500 | potential antiproliferative effects |
| – | 355 | – | COc1ccc(-c2coc3cc(O)ccc3c2=O)cc1 [Formononetin] | – | could not inhibit proliferation of tumor cells |
| – | 667 | – | COc1cc(-c2oc3cc(O)cc(O)c3c(=O)c2O)ccc1O [Isorhamnetin] | 10800 | potential antiproliferative effects |
| 490 | – | 570 | O=c1c(O)c(-c2ccc(O)c(O)c2)oc2cc(O)cc(O)c12 [Quercetin] | 19300 | potential antiproliferative effects |

From article PMC8088928 (Cancer Science, 2021)
